Assay results as given in ChEMBL document CHEMBL1201862, “PubChem BioAssay data set” (2004).
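Five concentrations, 48 hours, 96-well plates. GI50: concentration for 50% inhibition of growth.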 Calls of active or inactive are those of the source. No stated cut-off is given here; in the data, active = GI50 up to about 1.1 µM and inactive = higher.

How the values were obtained:
Test in all cases: inhibition of tumour cell growth, NCI panel, 48 h
SK-MEL-28 = tested on: SK-MEL-28
CCRF-CEM = tested on: CCRF-CEM
SK-OV-3 = tested on: SK-OV-3
K562 = tested on: K562
SK-MEL-2 = tested on: SK-MEL-2
HCC 2998 = tested on: HCC 2998
MOLT-4 = tested on: MOLT-4
HCT-15 = tested on: HCT-15
NCI-H23 = tested on: NCI-H23
OVCAR-4 = tested on: OVCAR-4
SF-268 = tested on: SF-268
HL-60 = tested on: HL-60
NCI-H460 = tested on: NCI-H460
A498 = tested on: A498
SN12C = tested on: SN12C
IGROV-1 = tested on: IGROV-1
SNB-19 = tested on: SNB-19
U-251 = tested on: U-251
KM-20L2 = tested on: KM-20L2
XF498 = tested on: XF498

SMILES: C[N+](C)(CCO)CCN1c2ccccc2Sc2ccccc21
- GI50 (SK-MEL-28): > 10 µM (inactive)
- GI50 (CCRF-CEM): > 10 µM (inactive)
- GI50 (SK-OV-3): > 10 µM (inactive)
- GI50 (K562): > 10 µM (inactive)
- GI50 (SK-MEL-2): > 10 µM (inactive)
- GI50 (HCC 2998): > 10 µM (inactive)
- GI50 (MOLT-4): > 10 µM (inactive)
- GI50 (HCT-15): > 10 µM
- GI50 (NCI-H23): > 10 µM (inactive)
- GI50 (OVCAR-4): > 10 µM (inactive)
- GI50 (SF-268): > 10 µM (inactive)
- GI50 (HL-60): > 10 µM (inactive)
- GI50 (NCI-H460): > 10 µM (inactive)
- GI50 (A498): > 10 µM (inactive)
- GI50 (SN12C): > 10 µM (inactive)
- GI50 (IGROV-1): > 10 µM (inactive)
- GI50 (SNB-19): > 10 µM (inactive)
- GI50 (U-251): > 10 µM (inactive)

SMILES: O=C1OC2CC=CC1C2 (stereo not drawn)
- GI50 (SK-MEL-28): > 100 µM (inactive)
- GI50 (CCRF-CEM): > 100 µM (inactive)
- GI50 (SK-OV-3): > 100 µM (inactive)
- GI50 (K562): > 100 µM (inactive)
- GI50 (SK-MEL-2): > 100 µM (inactive)
- GI50 (KM-20L2): > 100 µM (inactive)
- GI50 (HCC 2998): > 100 µM (inactive)
- GI50 (MOLT-4): > 100 µM (inactive)
- GI50 (HCT-15): > 100 µM
- GI50 (NCI-H23): > 100 µM (inactive)
- GI50 (OVCAR-4): > 100 µM (inactive)
- GI50 (SF-268): > 100 µM (inactive)
- GI50 (HL-60): > 100 µM (inactive)
- GI50 (NCI-H460): > 100 µM (inactive)
- GI50 (A498): > 100 µM (inactive)
- GI50 (SN12C): > 100 µM (inactive)
- GI50 (IGROV-1): > 100 µM (inactive)
- GI50 (SNB-19): > 100 µM (inactive)
- GI50 (U-251): > 100 µM (inactive)
- GI50 (XF498): > 100 µM (inactive)

SMILES: CCOC(=O)CN1CCS/C1=N/C#N
- GI50 (SK-MEL-28): > 100 µM (inactive)
- GI50 (CCRF-CEM): > 100 µM (inactive)
- GI50 (SK-OV-3): > 100 µM (inactive)
- GI50 (K562): > 100 µM (inactive)
- GI50 (SK-MEL-2): > 100 µM (inactive)
- GI50 (KM-20L2): > 100 µM (inactive)
- GI50 (HCC 2998): > 100 µM (inactive)
- GI50 (MOLT-4): > 100 µM (inactive)
- GI50 (HCT-15): > 100 µM
- GI50 (NCI-H23): > 87.5 µM (inactive)
- GI50 (OVCAR-4): > 100 µM (inactive)
- GI50 (SF-268): > 100 µM (inactive)
- GI50 (HL-60): > 100 µM (inactive)
- GI50 (NCI-H460): > 31.6 µM (inactive)
- GI50 (A498): > 100 µM (inactive)
- GI50 (SN12C): > 100 µM (inactive)
- GI50 (IGROV-1): > 100 µM (inactive)
- GI50 (SNB-19): > 100 µM (inactive)
- GI50 (U-251): > 100 µM (inactive)
- GI50 (XF498): > 100 µM (inactive)

SMILES: CC(C)[C@](O)(C(=O)OCC1CC[N+]2([O-])CC[C@@H](O)C12)[C@H](C)O (stereo partly drawn)
- GI50 (SK-MEL-28): > 375 µM (inactive)
- GI50 (CCRF-CEM): > 375 µM (inactive)
- GI50 (SK-OV-3): > 375 µM (inactive)
- GI50 (K562): > 375 µM (inactive)
- GI50 (SK-MEL-2): 62.2 µM (inactive)
- GI50 (KM-20L2): > 375 µM (inactive)
- GI50 (HCC 2998): > 277 µM (inactive)
- GI50 (MOLT-4): > 375 µM (inactive)
- GI50 (HCT-15): > 375 µM
- GI50 (NCI-H23): > 375 µM (inactive)
- GI50 (OVCAR-4): > 375 µM (inactive)
- GI50 (SF-268): > 375 µM (inactive)
- GI50 (HL-60): > 375 µM (inactive)
- GI50 (NCI-H460): > 122 µM (inactive)
- GI50 (A498): > 59.4 µM (inactive)
- GI50 (SN12C): > 375 µM (inactive)
- GI50 (IGROV-1): > 375 µM (inactive)
- GI50 (SNB-19): > 375 µM (inactive)
- GI50 (U-251): > 375 µM (inactive)
- GI50 (XF498): > 375 µM (inactive)

SMILES: CC[C@]12C=CCN3CC[C@@]4(c5ccc(OC)cc5N(C)[C@H]4[C@@](O)(C(=O)OC)[C@@H]1OC(C)=O)[C@@H]32
- GI50 (SK-MEL-28): > 200 µM (inactive)
- GI50 (CCRF-CEM): 132 µM (inactive)
- GI50 (SK-OV-3): > 200 µM (inactive)
- GI50 (K562): 131 µM (inactive)
- GI50 (SK-MEL-2): 182 µM (inactive)
- GI50 (KM-20L2): > 101 µM (inactive)
- GI50 (HCC 2998): > 200 µM (inactive)
- GI50 (MOLT-4): 81.3 µM (inactive)
- GI50 (HCT-15): 75.3 µM
- GI50 (NCI-H23): > 171 µM (inactive)
- GI50 (OVCAR-4): 35.4 µM (inactive)
- GI50 (SF-268): 138 µM (inactive)
- GI50 (HL-60): 89.3 µM (inactive)
- GI50 (NCI-H460): 177 µM (inactive)
- GI50 (A498): 102 µM (inactive)
- GI50 (SN12C): > 183 µM (inactive)
- GI50 (IGROV-1): > 185 µM (inactive)
- GI50 (SNB-19): > 200 µM (inactive)
- GI50 (U-251): > 200 µM (inactive)
- GI50 (XF498): > 172 µM (inactive)

SMILES: Nc1ncnc2c1nnn2C1OC(CO)C(O)C1O (stereo not drawn)
- GI50 (SK-MEL-28): 12.4 µM (inactive)
- GI50 (CCRF-CEM): 3.23 µM (inactive)
- GI50 (SK-OV-3): 0.822 µM (active)
- GI50 (K562): 1.61 µM (inactive)
- GI50 (SK-MEL-2): 1.3 µM (inactive)
- GI50 (KM-20L2): 4.2 µM (inactive)
- GI50 (HCC 2998): 1.83 µM (inactive)
- GI50 (MOLT-4): 5.41 µM (inactive)
- GI50 (HCT-15): 2.54 µM
- GI50 (NCI-H23): 7.82 µM (inactive)
- GI50 (OVCAR-4): 8.85 µM (inactive)
- GI50 (SF-268): 6.3 µM (inactive)
- GI50 (HL-60): 0.405 µM (active)
- GI50 (NCI-H460): 2.13 µM (inactive)
- GI50 (A498): 3.94 µM (inactive)
- GI50 (SN12C): 1.17 µM (inactive)
- GI50 (IGROV-1): 1.19 µM (inactive)
- GI50 (SNB-19): 5.66 µM (inactive)
- GI50 (U-251): 7.28 µM (inactive)
- GI50 (XF498): 6.98 µM (inactive)
